Patent US10722501B2 (BAYER AKTIENGESELLSCHAFT, priority 2016, dated 2020)

What follows are compounds tested against T1, recombinant full-length human prolyl endopeptidase (PREP) (Homo sapiens, UniProt P48147) (assay: Biochemical human prolyl endopeptidase (PREP) assay with fluorescently labelled substrate). Conditions: substrate Z-Gly-Pro-AMC 50 μM, 32° C., 60 min; some as mean values from multiple independent determinations.
T1 construct: To recombinant full-length human prolyl endopeptidase (PREP, R&D-Systems, 4308-SE); purchased R&D-Systems 4308-SE
T1 sequence (P48147 1-710): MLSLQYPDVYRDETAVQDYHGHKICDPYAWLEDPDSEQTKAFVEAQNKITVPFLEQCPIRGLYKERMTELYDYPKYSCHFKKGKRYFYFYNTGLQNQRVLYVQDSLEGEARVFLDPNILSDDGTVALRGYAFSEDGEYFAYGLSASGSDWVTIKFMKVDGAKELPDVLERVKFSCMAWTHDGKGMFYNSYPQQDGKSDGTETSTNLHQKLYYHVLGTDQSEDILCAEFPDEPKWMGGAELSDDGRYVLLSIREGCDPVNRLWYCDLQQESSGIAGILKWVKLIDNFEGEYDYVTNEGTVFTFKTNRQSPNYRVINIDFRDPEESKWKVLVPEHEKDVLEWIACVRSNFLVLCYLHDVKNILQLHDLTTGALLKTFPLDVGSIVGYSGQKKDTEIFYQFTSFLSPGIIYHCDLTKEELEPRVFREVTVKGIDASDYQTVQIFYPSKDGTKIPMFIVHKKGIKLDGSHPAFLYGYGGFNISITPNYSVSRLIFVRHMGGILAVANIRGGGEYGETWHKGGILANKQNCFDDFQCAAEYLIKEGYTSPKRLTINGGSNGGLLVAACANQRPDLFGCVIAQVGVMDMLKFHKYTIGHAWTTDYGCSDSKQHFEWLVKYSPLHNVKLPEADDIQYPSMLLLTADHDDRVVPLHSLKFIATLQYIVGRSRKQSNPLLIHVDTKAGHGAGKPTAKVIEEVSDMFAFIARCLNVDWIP
Procedure, shortened: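 Initial rates of fluorescence increase from 50 μM Z-Gly-Pro-AMC cleavage (ex 360/em 465 nm, 60 min, 32° C) give percent PREP activity versus no-compound control, and IC50 is interpolated. Enzyme used at 0.4 nM (final, example) in Tris pH 7.5 with EDTA, GSH, BSA and Brij-35; compounds span 1 nM to 30 μM.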

**Q.** For `O=C(C1CCCc2nn(Cc3ccc(Cl)nc3)c(=O)n21)N1CCCC1` (racemic) [Example 31, (5RS)-2-[(6-Chloropyridin-3-yl)methyl]-5-(pyrrolidin-1-ylcarbonyl)-5,6,7,8-tetrahydro[1,2,4]triazolo[4,3-a]pyridin-3(2H)-one], which IC50 is on record?
**A.** 2.9 nM

**Q.** Which IC50 does the source give for `O=C(C1CC(C(F)(F)F)Cc2nn(Cc3ncc(Cl)cc3F)c(=O)n21)N1C[C@@H](F)[C@@H](F)C1` (mixture of isomers) [Example 266, (5RS,7RS)-2-[(5-Chloro-3-fluoropyridin-3-yl)methyl]-5-{[(3R,4S)-3,4-difluoropyrrolidin-1-yl]carbonyl}-7-(trifluoromethyl)-5,6,7,8-tetrahydro[1,2,4]triazolo[4,3-a]pyridin-3(2H)-one] here?
**A.** 5.1 nM

**Q.** With `O=C(C1CC(C(F)(F)F)Cc2nn(Cc3ccc(Cl)nc3)c(=O)n21)N1CCCC1` (single isomer, unassigned) [Example 228, (5RS,7RS)-2-[(6-Chloropyridin-3-yl)methyl]-5-(pyrrolidin-1-ylcarbonyl)-7-(trifluoromethyl)-5,6,7,8-tetrahydro[1,2,4]triazolo[4,3-a]pyridin-3(2H)-one] as the compound, how does the IC50 read?
**A.** 2.2 nM

**Q.** Which IC50 does the source give for `O=C([C@@H]1CCCc2nn(Cc3ccc(Cl)nc3)c(=O)n21)N1C[C@@H](F)[C@@H](F)C1` [Example 424, (5S)-2-[(6-Chloropyridin-3-yl)methyl]-5-{[(3R,4S)-3,4-difluoropyrrolidin-1-yl]carbonyl}-5,6,7,8-tetrahydro[1,2,4]triazolo[4,3-a]pyridin-3(2H)-one] here?
**A.** 0.38 nM

**Q.** `Cc1ccc(Cn2nc3n(c2=O)C(C(=O)N2CCC(C)CC2)CCC3)cc1` (racemic) [Example 160, (5RS)-2-(4-Methylbenzyl)-5-[(4-methylpiperidin-1-yl)carbonyl]-5,6,7,8-tetrahydro[1,2,4]triazolo[4,3-a]pyridin-3(2H)-one] was tested. Which IC50 did it give?
**A.** 32 nM

**Q.** `O=C(C1CC(C(F)(F)F)Cc2nn(Cc3ccnc(C(F)(F)F)c3F)c(=O)n21)N1C[C@@H](F)[C@@H](F)C1` (single isomer, unassigned) [Example 260] was tested. Which IC50 did it give?
**A.** 2.6 nM

**Q.** `O=C([C@@H]1CCCc2nn(Cc3ccc(Cl)c(F)c3)c(=O)n21)N1C[C@@H](F)[C@@H](F)C1` [Example 462, (5S)-2-(4-Chloro-3-fluorobenzyl)-5-{[(3R,4S)-3,4-difluoropyrrolidin-1-yl]carbonyl}-5,6,7,8-tetrahydro[1,2,4]triazolo[4,3-a]pyridin-3(2H)-one] was tested. Which IC50 did it give?
**A.** 0.285 nM

**Q.** `O=C(O)c1ccc(Cn2nc3n(c2=O)C(C(=O)N2CCCC2)CCC3)cc1` (racemic) [Example 154, 4-{[(5RS)-3-Oxo-5-(pyrrolidin-1-ylcarbonyl)-5,6,7,8-tetrahydro[1,2,4]triazolo[4,3-a]pyridin-2(3H)-yl]methyl}benzoic acid] was tested. Which IC50 did it give?
**A.** 790 nM

**Q.** `Cc1ccc(Cn2nc3n(c2=O)C(C(=O)N2CCC4(C2)CC4(F)F)CCC3)cc1` (single isomer, unassigned) [Example 129, (5RS)-{[(3RS)-1,1-Difluoro-5-azaspiro[2.4]hept-5-yl]carbonyl}-2-(4-methylbenzyl)-5,6,7,8-tetrahydro[1,2,4]triazolo[4,3-a]pyridin-3(2H)-one] was tested. Which IC50 did it give?
**A.** 10 nM

**Q.** With `O=C(C1CCCc2nn(Cc3cc(F)c(F)cc3F)c(=O)n21)N1CCC(F)(F)C1` (racemic) [Example 91, (5RS)-5-[(3,3-Difluoropyrrolidin-1-yl)carbonyl]-2-(2,4,5-trifluorobenzyl)-5,6,7,8-tetrahydro[1,2,4]triazolo[4,3-a]pyridin-3(2H)-one] as the compound, how does the IC50 read?
**A.** 2.3 nM

**Q.** With `O=C([C@@H]1CCCc2nn(Cc3ncc(F)cc3Cl)c(=O)n21)N1CC[C@H](F)C1` [Example 560, (5S)-2-[(3-Chloro-5-fluoropyridin-2-yl)methyl]-5-{[(3S)-3-fluoropyrrolidin-1-yl]carbonyl}-5,6,7,8-tetrahydro[1,2,4]triazolo[4,3-a]pyridin-3(2H)-one] as the compound, how does the IC50 read?
**A.** 0.43 nM
